Patent publication US6140309A, “Vasoactive effects and free radical generation by β-amyloid peptides” (University of South Florida, priority 1996, dated 2000)
Entries after “also recorded” stand apart in the source; their conditions may differ.

Tests used:
[1] = system: endothelial cell layer in rat coronary artery; assay: Electron microscopy of the endothelial cell layer in rat coronary artery; format: cell-based; conditions: β-amyloid thirty minutes at 10^-6 M
Method: The physiological effects of β-amyloid treatment on the coronary artery with and without pretreatment with SOD is shown in FIGS. 7A-C. FIGS. 7A-C are electron micrographs showing the endothelial cell layer in rat coronary artery. […] The tissue samples were kept in glutaraldehyde solution at 4° C. until processed and then rinsed with cacodylate buffer. The tissues were post-fixed with 1% buffered osmium tetroxide, dehydrated with grated ethanol solutions, and embedded in a mixture of eponaraldite. Ultra thin sections were stained with uranyl acetate and lead citrate and viewed on a model 7,000 Hitachi transmission electron microscope. The inset bar indicates two microns. The experiment was repeated three or more times with blood vessels from different animals. FIG. 7A is a control coronary artery and depicts normal endothelial cells closely adhering to the intimal elastic lamina lining of the lumen. […] FIG. 7C depicts a rat coronary artery pretreated with SOD (150 units/ml, for thirty seconds prior to the addition of β-amyloid).

[2] = system: bovine mid cerebral arteries; assay: Effect of β-amyloid on bovine cerebral artery (U46619 contraction, bradykinin vasodilation); format: cell-based; conditions: 1 μM β-amyloid for 15 minutes
Method: Freshly dissected bovine mid cerebral arteries were cut into 3 mm rings and studied in tissue chamber as described earlier. Contraction of the blood vessel to the vasoconstrictor U46619 was studied before and after treatment with 1 μM β-amyloid for 15 minutes. […] (See FIG. 24).

[3] = system: blood vessel (rat aorta) with intact endothelium; assay: β-amyloid induced contraction (vasoactivity) of blood vessel rings in tissue bath; format: cell-based
Method: (§1) Freshly excised rat and porcine blood vessels were placed in Kreb's bicarbonate buffer equilibrated with 5% CO2 in O2. The buffer composition consisted of 118.2 mM NaCl, 4.7 mM KCl, 1.2 mM MgSO4, 2.5 mM CaCl2, 1.2 mM NaH2 PO4, 23 mM NaHCO3 and 11.2 mM glucose. After cleaning the vessels free of fat and other adhering tissues, the vessels were cut into ring segments of approximately 3mm in length. Care was taken not to damage the intimal surface.
The endothelium was removed from some preparations by rubbing the inside of the lumen with a metal spatula for six to ten seconds and subsequent rinsing with buffer. The removal of endothelium was confirmed by testing for relaxation to acetylcholine [Furchgott and Zawadzki, 1980].
(§2) The blood vessel preparations were mounted on stainless steel hooks attached to a force-displacement transducer and equilibrated under the optimum tension of 1.3 g for a period of sixty minutes in a tissue bath (10 ml) containing oxygenated (5% CO2 in O2) Kreb's buffer at 37° C. The buffer was changed every fifteen minutes. After equilibration for sixty minutes the viability of the blood vessel with intact endothelium was established by constricting the blood vessel using phenylephrine ([…]). This dose of phenylephrine elicited 80% of the maximum response. […] The vessel preparations were washed for fifteen minutes before various manipulations as described below.
Referring to FIG. 10, the arrow indicates the addition of 10^-6 M β-amyloid. The control tissue received no β-amyloid. SOD (150 units/ml) was added thirty seconds prior to the addition of β-amyloid. The maximum contraction induced by β-amyloid was 1.14±0.13 (g) and in presence of SOD the contraction was reduced to 0.04±0.02 (g). Values represent the mean ±SEM of five separate experiments.

Porcine aorta = assay: U46619 constriction and bradykinin relaxation of porcine vessel after amyloid peptide; format: cell-based; conditions: single dose of amyloid
Excerpt: The effect of pre-treatment with a single dose of amyloid protein on relaxation induced by increasing concentrations of the vasodilator bradykinin is shown in FIG. 23. […] was preconstricted with a single dose of the vasoconstrictor U46619.

[4] = system: endothelial cells in aortic rings; assay: Electron microscopy of the endothelial cell layer in aortic rings; format: cell-based, rat
Method: As shown in FIGS. 14A-F, […], or in presence of β-amyloid (10^-6 M), or SOD (150 units/ml) and β-amyloid.The tissue samples were kept in glutaraldehyde solution at 4° C. until processed and then rinsed with cacodylate buffer. The tissues were postfixed with 1% buffered osmium tetroxide, dehydrated with graded ethanol solutions, and embedded in a mixture of eponaraldite. Ultrathin sections were stained with uranyl acetate and lead citrate and viewed on model 7000 Hitachi transmission electron microscope. The inset bar indicates one micron. The experiment was repeated three or more times with blood vessels from different animals.

[5] = system: porcine coronary arteries; assay: Amyloid peptide induced contraction of porcine coronary arteries; format: cell-based; conditions: increasing concentrations of amyloid peptide
Excerpt: Freshly isolated porcine coronary arteries were studied by the methods described above for rat aorta.

blood vessel (rat aorta) = assay: Acetylcholine induced relaxation of phenylephrine-preconstricted aorta after β-amyloid pretreatment; format: cell-based
Method: as §1, §2
As shown in FIG. 11a the aorta was preconstricted with 10^-7 M PE and relaxed with increasing doses of acetylcholine as shown by the arrows. (1=10^-9 M, 2=10^-8 M, 3=5×10^-8 M, 4=10^-7 M, 5=5×10^-7 M, 6=10^-6 M, 7=10^-5 M, 8=5×10^-5 M, the curve denoted by (C) is the control curve and +Aβ indicates the curve for β-amyloid treated aorta.)
FIG. 11b illustrates the relaxation by acetylcholine under control conditions and following fifteen minute incubation with 10^-6 M β-amyloid protein. The acetylcholine relaxation curve is shifted to the right but maintains its sigmoidal form indicating attenuation of acetylcholine induced relaxation. Values represent the mean ±SEM of 5 or more experiments. […] At higher doses of acetylcholine greater percentage changes in relaxation occur preserving the sigmoidal response.

aortic rings = assay: β-amyloid augmentation of phenylephrine (PE) induced contraction of aortic rings; format: cell-based, rat; conditions: for PE induced contraction, +β-Amyloid P1 (±SEM), percent of control value: 10^-6 M β-amyloid fifteen minutes, control maximum = 100%; for PE induced contraction, +β-Amyloid P2 (±SEM), percent of control value: repeated after rinsing, no further β-amyloid
Method: as §1, §2
The procedure was then repeated following incubation of the tissue with 10^-6 M β-amyloid for fifteen minutes (P1). The tissue was then rinsed and contractions repeated twice following fifteen minute incubation (P2 & P3) without further addition of β-amyloid. Arrows are shown for points of addition for P3.
Following a fifteen minute incubation, the preparations were contracted with 10^-7 M phenylephrine (PE) as described earlier. Control contractions with PE alone were carried out in presence of the various test compounds. Values represent the mean ±SEM of four or more experiments. The heat-inactivated SOD was prepared by placing it in boiling water for thirty minutes followed by cooling prior to use. The hydrogen peroxide-inactivated SOD was prepared by exposing SOD to 10 mM H2 O2 for thirty minutes at pH 8.5 and subsequent separation using Microcon filtration system. The amyloid induced PE contraction was blocked by active SOD. Neither albumin or inactivated SOD had any effect on the amyloid activity.
The effect of preincubation of blood vessel with 10^-6 M β-amyloidon contraction induced by phenylephrine (2,4,8, & 16×10^-8 M is shown in Table 1). The maximum contraction in the absence of β-amyloid is taken as 100% and the values obtained following exposure to β-amyloid are expressed as percent of control value. After washing out phenylephrine and acetylcholine of the control contraction, β-amyloid augmented the phenylephrine induced contractions (P1). This effect was blocked by SOD. Washing out the phenylephrine and acetylcholine of the post peptide contraction and repeating the contractions caused further enhancement (P2). Values represent the mean ±SEM of nine or more experiments.
The tissue was then incubated for fifteen minutes with β-amyloid (5×10^-7 M) with or without the drug, followed by contractions with PE. The concentrations compounds used were: L-NMMA, an inhibitor of NO synthase (10^-4 M); indomethacin, an inhibitor of the cyclooxygenase pathway (10^-5 M); SQ 29548, a thromboxane A2 receptor antagonist (10^-5 M); and catalase (1000 units/ml). Values are represented as percentage of the maximal contraction obtained with β-amyloid and PE alone and standardized to remove the intrinsic effects (if any) of each drug on PE contraction alone. The results represent the mean ±SEM of five or more experiments.

- β-amyloid concentration required to induce the morphological changes ([4]; incubation periods of fifteen minutes): ≥ 5×10^-7 M
Substance: β-amyloid
- morphology of endothelial layer after β-amyloid [1]: Derangement of the endothelial layer, condensed nucleus, separation from the intimal elastic lamina, and areas of denuded internal elastic lamina
- contraction induced by the vasoconstrictor U46619 after β-amyloid [2]: significantly increased
- duration of the vasoactivity (contractions and relaxations) [3]: fifteen to twenty minutes
- time until vasoactive effect is evident [3]: within thirty seconds; also recorded: less than one minute; also recorded: less than five minutes
- initial detectable change: minor relaxation ([3]; after addition of β-amyloid): < 0.1 g
- effect of β-amyloid on basal tension ([3]; increasing concentrations of β-amyloid): constricted the blood vessel in a concentration-dependent manner
- dependence of the constricting effect on endothelium ([3]; vessel with vs without endothelium): only occurred in the presence of endothelium
- effect on vasodilation by bradykinin (Porcine aorta; increasing concentrations of bradykinin): reduced the vasodilation caused by the bradykinin
- effect on vasoconstriction (Porcine aorta; preconstricted with U46619): significant increase in vasoconstriction
- morphological effect on endothelial cells ([4]; β-amyloid 10^-6 M, 37° C., thirty minutes): induced significant damage to the endothelial cells
- contraction of porcine coronary artery samples [5]: dose dependent contraction
- cumulative percentage relaxation by acetylcholine after β-amyloid (blood vessel (rat aorta); 10^-6 M β-amyloid, fifteen minute incubation, 10^-7 M phenylephrine, all points past 10^-8 M acetylcholine): significantly lowered
- effect of β-amyloid pretreatment on acetylcholine induced relaxation (blood vessel (rat aorta); cumulative small doses of acetylcholine (FIG. 4)): significantly reduced relaxation induced by the same doses of acetylcholine
- effect of washing the tissue after β-amyloid on acetylcholine induced relaxation (blood vessel (rat aorta); washout after β-amyloid exposure): did not restore the acetylcholine-induced relaxation to control levels
- effect of β-amyloid pretreatment on phenylephrine constriction (aortic rings; FIG. 4): enhanced constriction
- PE induced contraction, +β-Amyloid P1 (±SEM), percent of control value (aortic rings; PE 2×10^-8 M): 13.3 (5.9) %
- PE induced contraction, +β-Amyloid P2 (±SEM), percent of control value (aortic rings; PE 2×10^-8 M): 20 (5.0) %
- PE induced contraction, +β-Amyloid P1 (±SEM), percent of control value (aortic rings; PE 4×10^-8 M): 75 (6.0) %
- PE induced contraction, +β-Amyloid P2 (±SEM), percent of control value (aortic rings; PE 4×10^-8 M): 99 (15.0) %
- PE induced contraction, +β-Amyloid P1 (±SEM), percent of control value (aortic rings; PE 8×10^-8 M): 105 (15.0) %
- PE induced contraction, +β-Amyloid P2 (±SEM), percent of control value (aortic rings; PE 8×10^-8 M): 133 (20.0) %
- PE induced contraction, +β-Amyloid P1 (±SEM), percent of control value (aortic rings; PE 16×10^-8 M): 128 (11.7) %
- PE induced contraction, +β-Amyloid P2 (±SEM), percent of control value (aortic rings; PE 16×10^-8 M): 141 (17.6) %
